In patent publication US4201784A, “Substituted 2-[2'-(5"-nitrofuryl-2")vinyl-and 4'-(5"-nitrofuryl-2"-1,3-butadieryl]quinoline-4-carboxylic acid amides and salts thereof” (Institut Organicheskogo Sinteza Akademii Nauk Latviiskoi SSR, priority 1977, dated 1980):
Read-outs that look alike come from different tables or passages of the source.

Experiments:
sarcoma 37 = experiment: Antitumor activity, life prolongation, sarcoma 37; format: in vivo, mice
Protocol: (§1) Apart from the tests on Ehrlich ascitic tumor, giniquine was studied on twelve more inoculated tumors. Seven tumors (melanoma B16, sarcoma AK, large intestine carcinoma acatol-1, sarcoma 180, adenocarcinoma 755, Lewis lung carcinoma and sarcoma 37) were inoculated subcutaneously with 50 mg of tumoral cells per mouse. Four tumors (lymphatic leukemies L 5178, L 5178Y, L 1210 and P-388) were inoculated intraperitoneally with 10^6 cells per mouse. One tumor (La, hemocytoblastosis) was inoculated intraperitoneally by injecting 50 mg of cell suspension of spleen and liver of mice suffering La hemocytoblastosis, per mouse. Giniquine was injected intraperitoneally five times for seven days: 1,2,3,4,7 days or 3,4,5,6,7 days after the implantation of tumor. The rate of deceleration of the tumor growth was established 14 days after the ultimate injection of giniquine; life of test animals was recorded for 60 days.

Ehrlich ascitic tumor [1] = experiment: Influence of fluorafur on antitumor activity of giniquine, Ehrlich ascitic tumor; format: in vivo, mice
Protocol: In some experiments the influence of the known preparation fluorofur on the antitumoral activity of giniquine was studied. […] The tests were made on Ehrlich ascitic tumor. The preparations were injected 1,2,3,4 and 7 days after the implantation of tumor. Giniquine was injected intraperitoneally and fluorafur-subcutaneously.
giniquine was injected intraperitoneally, and fluorafursubcutaneously.

sarcoma AK = experiment: Antitumor activity, sarcoma AK; format: in vivo, mice
Protocol: as §1

Lungs = experiment: In vivo biosynthesis of DNA, RNA and protein in lungs; set-up: species or system mice; conditions: 24 hours, intraperitoneal 28 mg/kg
Protocol: (§2) The influence of giniquine on biosynthetic processes in the in vivo tests was studied on common white mice of a mass of 25-35 g with Ehrlich ascitic tumor.
(§3) The mice were divided into two groups. The animals in the first group were given a single injection of the preparation in differing doses, and the animals in the second group were treated with distilled water. Three series of experiments were conducted. In the first series of tests (16 mice) the preparation was injected in a dose of 100 mg/kg ([…] dose), and the animals were decapitated one hour after the injection; in the second test series (16 mice) the animals were slaughtered 3 hours after the injection with other conditions being the same. In the third test series (35 mice) the influence of giniquine on plastic metabolism in tumor cells and normal tissues was studied 24 hours after the injection of a 0.33% solution of the preparation in a dose of 28 mg/kg (therapeutical dose).
(§4) Labeled precursors of nucleic acids and protein were injected intraperitoneally one hour before the slaughter of the animals (50 μc/100 g). Ascitic fluid, as well as liver and spleen, mucous membrane of small intestine, brain, kidneys and lungs were taken for analysis. 10% suspension was prepared from tumor cells, and 10% homogenates were prepared from tissues in a physiological solution.
(§5) Tumor cells and tissue homogenates for precipitation of nucleic acids were treated with 57% perchloric acid (10:1). […] Radioactivity of DNA and RNA fractions was measured by means of a liquid scintillation counter. The quantity of DNA and RNA was determined by spectrophotometry: the quantity of DNA was determined with diphenylamine, and RNA- with orcin.
(§6) To prepare protein hydrolysate, the suspension of tumoral cells and homogenates of normal tissues were treated with cool 10% trichloracetic acid (1:4), with subsequent centrifuging at 2000 g for ten minutes. […] The radioactivity was measured by means of a liquid scintillation counter. Protein was quantitatively determined by spectrophotometry using a microbiuret reaction.

Ehrlich ascitic tumor [2] = experiment: Antitumor activity, life prolongation of mice with Ehrlich ascitic tumor; format: in vivo
Protocol: The experiment was conducted as follows. 10^6 cells of Erlich tumuor were injected in common white mice intraperitoneally, the dose being given per each animal. […] Each dose of the preparation was tested in six mice. The control group included 18 mice. Giniquine solution was prepared by dissolving the substance ex tempore in distilled water or in a buffer. The effect of the preparation is shown on charts 1,2,3.

[3] = tested on: Tumor cells (Ehrlich ascitic tumor); experiment: In vivo biosynthesis of DNA, RNA and protein in tumor cells; set-up: species or system mice; conditions: for Incorporation of 2-^14 C-leucine in protein / Incorporation of 2-^14 C-thymidine in DNA: intraperitoneal 100 mg/kg; for inhibition at 100 mg/kg: Mus musculus, Ehrlich
Protocol: as §2, §3, §4
Tumor cells and tissue homogenates for precipitation of nucleic acids were treated with 57% perchloric acid (10:1). Acid-soluble fraction was removed by washing the precipitate twice with 5 ml of 5% perchloic acid with subsequent centrifuging at 2000 g. Nucleic acids were hydrolyzed by the Schneider method. Radioactivity of DNA and RNA fractions was measured by means of a liquid scintillation counter. The quantity of DNA and RNA was determined by spectrophotometry: the quantity of DNA was determined with diphenylamine, and RNA- with orcin.
To prepare protein hydrolysate, the suspension of tumoral cells and homogenates of normal tissues were treated with cool 10% trichloracetic acid (1:4), with subsequent centrifuging at 2000 g for ten minutes. The precipitate was washed twice with 5 ml of 10% trichloracetic acid. Lipoids were removed by a consecutive treatment of the precipitate with ethanol, saturated solution of sodium acetate, a mixture of ethanol and ether (3:1) and ether. To prepare protein hyhdrolysate, 4 ml of 0.3N KOH were added to the precipitate, and the mixture was placed into a thermostatic chamber at 37° C. for 60 minutes. The radioactivity was measured by means of a liquid scintillation counter. Protein was quantitatively determined by spectrophotometry using a microbiuret reaction.

lymphatic leukemia P-388 = experiment: Antitumor activity, lymphatic leukemia P-388; format: in vivo, mice
Protocol: as §1

[4] = LD50 / toxicity, mice with 7-days Ehrlich ascitic tumor; format: in vivo; conditions: for LD50: mouse, in vivo
La hemocytoblastosis = experiment: Antitumor activity, La hemocytoblastosis; format: in vivo, mice
Protocol: as §1

acatol-1 = experiment: Antitumor activity, large intestine adenocarcinoma acatol-1; format: in vivo, mice
Protocol: as §1

Brain = experiment: In vivo biosynthesis of DNA, RNA and protein in brain; set-up: species or system mice; conditions: 24 hours, intraperitoneal 28 mg/kg
Protocol: as §2, §3, §4, §5, §6

[5] = 24 hours, intraperitoneal 28 mg/kg
[6] = BALB/c female mice, intraperitoneal, days 3,4,5,6,7, optim. daily dose 10.0 mg/kg

SMILES: CCN(CC)CCCC(C)NC(=O)c1cc(C=Cc2ccc([N+](=O)[O-])o2)nc2ccccc12 (stereo not drawn) [giniquine, 2-[2'-(5"-nitrofuryl-2")vinyl]quinoline-4-carboxylic acid (α-methyl-δ-diethylaminobutyl)amide triphosphate]
- Max. life prolong. (sarcoma 37; common female mice, intraperitoneal, days 1,2,3,4,7, daily doses 6.0-28.0 mg/kg, optimum daily dose 0): 0%
- antiblastic activity / sensitivity (in words) (sarcoma 37; sarcoma 37): practically insensitive
- Life prolongation (Ehrlich ascitic tumor [1]; Test No. 1, giniquine 3.6 mg/kg daily): 55%
- Life prolongation (Ehrlich ascitic tumor [1]; Test No. 1, giniquine 6.0 mg/kg daily): 67%
- Life prolongation (Ehrlich ascitic tumor [1]; Test No. 1, giniquine 10.0 mg/kg daily): 38%
- Life prolongation (Ehrlich ascitic tumor [1]; Test No. 1, giniquine 17.0 mg/kg daily): -5%
- Life prolongation (Ehrlich ascitic tumor [1]; Test No. 2, giniquine 3.6 mg/kg daily): 45%
- Life prolongation (Ehrlich ascitic tumor [1]; Test No. 2, giniquine 6.0 mg/kg daily): 98%
- Life prolongation (Ehrlich ascitic tumor [1]; Test No. 2, giniquine 10.0 mg/kg daily): 5%
- Life prolongation (Ehrlich ascitic tumor [1]; Test No. 2, giniquine 17.0 mg/kg daily): -48%
- Deceleration of tumor growth (sarcoma AK; common female mice, intraperitoneal, days 3,4,5,6,7, optim. daily dose 2.2 mg/kg): 46%
- Max. prolongation of life (sarcoma AK; common female mice, intraperitoneal, days 3,4,5,6,7, optim. daily dose 10.0 mg/kg): 15%
- antitumor effect (in words) (sarcoma AK; sarcoma AK): slight antitumor effect
- Incorporation of specific precursors, DNA (Lungs): 255.0 % of control
- Incorporation of specific precursors, Protein (Lungs): 102.0 % of control
- Incorporation of specific precursors, RNA (Lungs): 124.0 % of control
- dependence of antitumoral effect on solution concentration (Ehrlich ascitic tumor [2]; 0.1 to 0.35% solution): did not change within this range of concentrations
- prolongation of life (Ehrlich ascitic tumor [2]; Chart 1, intraperitoneal injection): 100%
- prolongation of life (Ehrlich ascitic tumor [2]; Chart 1, intravenous injection): 25%
- antitumor effect, single versus five injections (Ehrlich ascitic tumor [2]; Chart 2, single intraperitoneal injection on first day vs five injections at 1,2,3,4,7 days): the same
- prolongation of life (Ehrlich ascitic tumor [2]; Chart 3, intraperitoneal injection on 7th day): 100%
- prolongation of life (Ehrlich ascitic tumor [2]; Chart 3, intraperitoneal injection on 14th day): 55%
- prolongation of life (Ehrlich ascitic tumor [2]; Chart 3, intraperitoneal injection on first day after implantation): 90%
- prolongation of life (Ehrlich ascitic tumor [2]; Chart 3, intraperitoneal injection on third day): 80%
- Incorporation of 2-^14 C-leucine in protein ([3]; 1 h): 59.0 % of control
- Incorporation of 2-^14 C-thymidine in DNA ([3]; 1 h): 43.0 % of control
- Incorporation of 2-^14 C-leucine in protein ([3]; 3 h): 14.0 % of control
- Incorporation of 2-^14 C-thymidine in DNA ([3]; 3 h): 30.0 % of control
- suppression of incorporation of 2-^14 C-thymidine in DNA ([3]; 24 hours, 28 mg/kg): 82%
- suppression of incorporation of 2-^14 C-uridine in RNA ([3]; 24 hours, 28 mg/kg): 42%
- Incorporation of specific precursors, DNA [3, 5]: 18.0 % of control
- Incorporation of specific precursors, Protein [3, 5]: 54.0 % of control
- Incorporation of specific precursors, RNA [3, 5]: 58.0 % of control
- inhibition at 100 mg/kg ([3]; 1 h, one hour, 100 mg/kg, read-out: inhibition of biosynthesis of DNA): 57%
- inhibition at 100 mg/kg ([3]; 3 h, three hours, 100 mg/kg, read-out: inhibition of biosynthesis of DNA): 70%
- inhibition at 100 mg/kg ([3]; 3 h, three hours, 100 mg/kg, read-out: inhibition of biosynthesis of protein): 86%
- biosynthesis processes in tumor cells (in words) ([3]; in vivo): the same effect on biosynthesis processes in tumor cells
- suppression of biosynthesis of protein ([3]; one hour, 100 mg/kg): 41%
- sensitivity (in words) (lymphatic leukemia P-388; P-388): practically insensitive
- Max. life prolong. (lymphatic leukemia P-388; printed B-388, BDF1 female mice, intraperitoneal, days 1,2,3,4,7, optimum daily dose 10.0 mg/kg): 12%
- toxicity compared to intraperitoneal injection ([4]; intravenous injection): five times greater
- LD50 ([4]; ip, intraperitoneal, ten injections, female): 10 mg/kg
- LD50 ([4]; ip, intraperitoneal, ten injections, male): 7 mg/kg
- LD50 ([4]; iv, single injection, female): 17.5 mg/kg
- LD50 ([4]; iv, single injection, male): 20 mg/kg
- Max. life prolong. (La hemocytoblastosis; C57 BL/6Y female mice, intraperitoneal, days 1,2,3,4,7, optimum daily dose 10.0 mg/kg): 5%
- antitumor effect / sensitivity (in words) (La hemocytoblastosis; La hemocytoblastosis): practically insensitive
- Deceleration of tumor growth (acatol-1; [6]): 38%
- Max. prolongation of life (acatol-1; [6]): 25%
- antitumor effect / sensitivity (in words) (acatol-1; acatol-1): slight antitumor effect
- Incorporation of specific precursors, DNA (Brain): 125.0 % of control
- Incorporation of specific precursors, Protein (Brain): 105.0 % of control
- Incorporation of specific precursors, RNA (Brain): 124.0 % of control
